# Experimental data taken from paper doi:10.1101/2024.11.09.622805v1 (bioRxiv, 2024).
# Experiments:
# [1] = stated in discussion, no reference given; cited from earlier work
# HT-22 cells = format: cell-based, mouse
# [2] = system: SNAP-25, Syntaxin-1A, AT1A3; test: Immunocytochemistry of porosome proteins in Alzheimer's neurons; format: cell-based, mouse; settings: Alzheimer's neurons WT-APP (Aβ)
smiles,measurement,setting,value
O=c1cc(-c2ccc(O)cc2)oc2cc(O)cc(O)c12 [Apigenin],passage through the blood-brain barrier,[1],can pass through the blood-brain barrier
same,"mitoSOX, peptide plus Apigenin","HT-22 cells; AD neurons, peptide and Apigenin combined",near normal levels
same,"mitoSOX, effect of Apigenin","HT-22 cells; HT-22, Apigenin 5 or 10 μM with DA1 1 μM, Aβ1–42 10 μM 12 h",not much change
same,"immunoreactivity of SNAP-25, Syntaxin-1A and AT1A3, single agent",[2],Modest increase
